Experimental data as given in article PMC11345504 (Current Research in Insect Science, 2024).

Key:
RpalOR1 [1] = target: T1, RpalOR1 (Rhynchophorus palmarum, UniProt A0A8A5RCH6); assay: single-sensillum recording, Drosophila at1 OSNs; assay type: cell-based; conditions: 500 ms, agonist
T1 sequence (A0A8A5RCH6 1-411): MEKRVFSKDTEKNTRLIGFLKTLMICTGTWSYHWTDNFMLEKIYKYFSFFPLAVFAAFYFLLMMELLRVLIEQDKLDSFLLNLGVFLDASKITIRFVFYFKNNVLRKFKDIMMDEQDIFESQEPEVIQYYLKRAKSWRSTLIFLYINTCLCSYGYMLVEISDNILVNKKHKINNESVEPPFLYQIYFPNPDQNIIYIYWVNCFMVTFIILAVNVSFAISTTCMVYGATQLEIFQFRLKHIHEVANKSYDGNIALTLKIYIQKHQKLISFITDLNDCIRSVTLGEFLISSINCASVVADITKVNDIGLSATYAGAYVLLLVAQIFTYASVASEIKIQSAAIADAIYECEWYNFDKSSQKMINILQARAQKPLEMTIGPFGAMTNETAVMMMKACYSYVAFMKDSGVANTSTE
T1 sequence (Q9VNB5 1-486 partner): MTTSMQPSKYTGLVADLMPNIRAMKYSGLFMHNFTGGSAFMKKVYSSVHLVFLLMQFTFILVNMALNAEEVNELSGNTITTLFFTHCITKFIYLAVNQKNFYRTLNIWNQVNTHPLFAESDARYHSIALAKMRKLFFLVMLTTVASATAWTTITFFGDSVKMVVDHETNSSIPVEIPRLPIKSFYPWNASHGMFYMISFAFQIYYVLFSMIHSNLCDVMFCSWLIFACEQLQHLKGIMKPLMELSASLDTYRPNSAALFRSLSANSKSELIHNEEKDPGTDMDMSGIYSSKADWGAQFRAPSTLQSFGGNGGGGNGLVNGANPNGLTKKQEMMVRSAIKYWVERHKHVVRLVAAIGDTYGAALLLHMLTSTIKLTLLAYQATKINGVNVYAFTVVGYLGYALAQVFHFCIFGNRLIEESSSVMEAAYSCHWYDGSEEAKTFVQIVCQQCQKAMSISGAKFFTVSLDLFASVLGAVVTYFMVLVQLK

RpalOR1 [2] = target: T1, RpalOR1; assay: single-sensillum recording, Drosophila at1 OSNs; assay type: cell-based; conditions: 1 µg in hexane on stimulus cartridge, 500 ms; agonist
RferOR1 = target: T2, RferOR1 (Rhynchophorus ferrugineus, UniProt A0A4P8W8S8); assay: single-sensillum recording, Drosophila at1 OSNs; assay type: cell-based; conditions: […] µg in paraffin oil on stimulus cartridge, […] ms; agonist
T2 sequence (A0A4P8W8S8 1-411): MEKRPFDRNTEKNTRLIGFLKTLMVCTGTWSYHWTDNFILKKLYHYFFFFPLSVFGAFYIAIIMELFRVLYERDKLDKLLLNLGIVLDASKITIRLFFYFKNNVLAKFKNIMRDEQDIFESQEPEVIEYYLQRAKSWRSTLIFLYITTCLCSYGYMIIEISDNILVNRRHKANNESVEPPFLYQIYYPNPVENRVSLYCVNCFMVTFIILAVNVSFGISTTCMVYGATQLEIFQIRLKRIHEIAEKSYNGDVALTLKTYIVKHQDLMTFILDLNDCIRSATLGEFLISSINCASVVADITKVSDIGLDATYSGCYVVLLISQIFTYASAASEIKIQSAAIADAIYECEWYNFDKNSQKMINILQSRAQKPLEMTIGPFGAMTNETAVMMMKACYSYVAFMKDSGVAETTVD
T2 sequence (Q9VNB5 1-486 partner): T1 sequence (Q9VNB5 1-486 partner)

RpalOR1 [3] = target: T1, RpalOR1; conditions: 100 µg in paraffin oil on stimulus cartridge, 500 ms; agonist
[4] = 1 µg in hexane on stimulus cartridge
[5] = 100 µg in paraffin oil on stimulus cartridge

CCCC(=O)C(C)CCC (stereo not drawn) [5-methyloctan-4-one]
single-sensillum recording, Drosophila at1 OSNs (RpalOR1 [1]; [4]): We also found a response to 5-methyloctan-4-one

C/C=C/C(O)CCCC (stereo not drawn) [(E)‑oct-2-en-4-ol]
single-sensillum recording, Drosophila at1 OSNs (RpalOR1 [1]; [4]): The two last agonists were (E)‑oct-2-en-4-ol and nonan-5-one

C/C=C/C(O)C(C)CC (stereo not drawn) [(E)−5-methylhept-2-en-4-ol]
average response at 1 μg (RpalOR1 [2]): 27 action potentials per second

CCCCOC(=O)CCC [butyl butyrate]
single-sensillum recording, Drosophila at1 OSNs (RpalOR1 [1]; [5]): significantly activated by the same palm tree esters: propyl butyrate, butyl butyrate | single-sensillum recording, Drosophila at1 OSNs (RferOR1): significantly activated by the same palm tree esters: propyl butyrate, butyl butyrate

CCCCCC(=O)OCC [ethyl hexanoate]
single-sensillum recording, Drosophila at1 OSNs (RpalOR1 [1]; [5]): propyl butyrate, butyl butyrate, ethyl valerate and ethyl hexanoate | single-sensillum recording, Drosophila at1 OSNs (RferOR1): propyl butyrate, butyl butyrate, ethyl valerate and ethyl hexanoate

CCCCC(=O)OCC [ethyl valerate]
single-sensillum recording, Drosophila at1 OSNs (RpalOR1 [1]; [5]): propyl butyrate, butyl butyrate, ethyl valerate and ethyl hexanoate

CCCCC(O)C(C)CCC (stereo not drawn) [ferrugineol, 4-methylnonan-5-ol]
average response at 1 μg (RpalOR1 [2]): 112 action potentials per second

CCCCC(=O)C(C)CCC (stereo not drawn) [ferrugineone, 4-methylnonan-5-one]
average response at 1 μg (RpalOR1 [2]): 103 action potentials per second

CCCCC(O)CCCC [nonan-5-ol]
single-sensillum recording, Drosophila at1 OSNs (RpalOR1 [1]; [4]): RpalOR1 was activated by phoenicol as well as nonan-5-ol

CCCCC(=O)CCCC [nonan-5-one]
single-sensillum recording, Drosophila at1 OSNs (RpalOR1 [1]; [4]): The two last agonists were (E)‑oct-2-en-4-ol and nonan-5-one

CCCCC(O)C(C)CC (stereo not drawn) [phoenicol, 3-methyloctan-4-ol]
single-sensillum recording, Drosophila at1 OSNs (RpalOR1 [1]; [4]): RpalOR1 was activated by phoenicol as well as nonan-5-ol

CCCOC(=O)CCC [propyl butyrate]
average response at 100 μg (RpalOR1 [3]): 63 action potentials per second | single-sensillum recording, Drosophila at1 OSNs (RferOR1): both RpalOR1 and RferOR1 were significantly activated by the same palm tree esters: propyl butyrate
